The values below are quoted from earlier work in patent US20050014837A1, “Method for treating ocular hypertension and glaucoma” (priority 2001, published 2005).

The conditions of the data set: 0.01% solution; 5, 10 and 20 μL.

Take `O=C1OC2(c3ccc(O)cc3Oc3cc(O)ccc32)c2ccccc21` [fluorescein]: the “initial concentration in meniscus relative to the concentration of the administered fluorescein” value is on record as 36-45%.
